Results taken from patent US20240065988A1, “COMBINED USE OF KETAMINE AND RETIGABINE (EZOGABINE) FOR THE TREATMENT OF PSYCHIATRIC DISORDERS” (Yeda Research and Development Co. Ltd., priority 2021, published 2024).
Entries after “also recorded” stand apart in the source; their conditions may differ.

Assays:
[1] = test system: Kcnq2 mRNA in glutamatergic neurons of the vHipp; assay: qPCR mRNA levels in FACS-sorted glutamatergic neurons (Ai9+/tdTomato+) and remaining cells (Ai9-/tdTomato-) of Nex-Cre-Ai9 mice; type: in vivo, mouse; settings: for mRNA levels of 8 top DEGs: ketamine vs saline
Description: Conditional transgenic mice expressing tdTomato in glutamatergic neurons of the forebrain (Nex-Cre;Ai9) were generated by crossing homozygous Nex-Cre mice [described in S. Goebbels et al., Genesis (2006) 44: 611-621] with homozygous Ai9 mice [Gt(ROSA)26Sortm9(CAG-tdTomato)Hze] [described in L. Madisen et al., Nat Neurosci (2010) 13: 133-140].
In order to further investigate these findings, a conditional reporter mouse line (Nex-Cre-Ai9) was generated where most glutamatergic neurons of the forebrain, including the hippocampus, are fluorescently labeled by tdTomato (Ai9) except for neurons in the dentate gyrus where Neurod6, the promoter used to target glutamatergic neurons driving Cre expression, is not expressed (FIG. 12) [J. Hartmann et al., Mol Psychiatry (2017) 22: 466-475]. Following the same paradigm used in the original cohort, mice were group-housed and injected with (R,S)-ketamine (10 mg/kg BW) or a saline vehicle control. The vHipp of these mice was dissected […] later (i.e. 2 days). Single-cell suspensions were prepared and individual cells were sorted using fluorescence activated cell sorting (FACS) (FIG. 2A) into two separate pools of cells from each mouse. One pool contained glutamatergic neurons (Ai9+) and a second contained all remaining cell types of the vHipp (Ai9-) (FIG. 2A and FIGS. 13A-C). […] These two separate pools of cells were then used to validate the scRNA-seq findings in glutamatergic neurons at the population level using quantitative real-time polymerase chain reaction (qPCR).
Next, it was tested whether retigabine can produce similar synergistic effects in combination with traditional antidepressants.

[2] = test system: ventral hippocampus bulk tissue; assay: Bulk qPCR mRNA levels in brain punches (tissue homogenates) from the vHipp; type: in vivo, mouse; settings: ketamine 10 mg/kg, 2 days
[3] = test system: KCNQ channel (KCNQ2/3, M-current); assay: Ex vivo patch-clamp recording of IM current density in CA1 pyramidal neurons of acute vHipp slices; set-up: species or system mouse; settings: ketamine 10 mg/kg BW i.p., 36 hours before slice preparation vs saline
mice (C57BL/6N) = assay: Forced swim test (FST), pharmacological manipulation of KCNQ; type: in vivo, mouse
Method: C57BL/6N and CD-1 (ICR) male mice aged 10 weeks old were used in these experiments. Ketamine hydrochloride (Ketaset, Zoetis, Germany) was diluted in 0.9% NaCl solution (saline) and administered i.p at 1, 5 or 10 mg/kg BW, depending on the experiment design. The KNCQ inhibitor, XE991 (Alomone labs; Cat #: X-100) was diluted in 5% DMSO and administered i.p at 1 or 3 mg/kg BW. The KCNQ activator, Retigabine (Alomone labs; Cat #: R-100), was diluted in 5% DMSO and administered i.p at 1 or 5 mg/kg BW. As control, mice were injected with a DMSO-saline solution (5% DMSO). For all experiments, mice were tested 30 minutes after injection in the FST or over a period of 36 hours after injection in the social boxes.
Previous studies in rodents have shown that KCNQ function can be regulated with highly-specific agonists and antagonists [V. Barrese et al., Annu Rev Pharmacol Toxicol (2018) 58: 625-648]. To further explore the KCNQ channel as a potential therapeutic target of ketamine, it was examined whether pharmacological inhibition of KCNQ alone or in combination with ketamine had any effects on behavior. To accomplish this, a new cohort of mice received two injections with a combination of drugs. […] To assess the effects of ketamine, XE991 (KCNQ inhibitor), and its combination, these mice were exposed to a FST (FIG. 7A, left). […] The inventors then sought to test whether the effects of ketamine could be mimicked, increased or amplified using retigabine, also known as ezogabine, a selective KCNQ (Kcnq2/3) channel activator. Similarly to the previous experiment, mice were treated with saline, (R,S)-ketamine (10 mg/kg BW), or ketamine in combination with two different concentrations of retigabine (1 and 5 mg/kg BW) (FIG. 7A, right).
Next, it was examined whether retigabine could increase the sustained antidepressant-like effects produced by a single injection of ketamine in mice. Accordingly, a new cohort of mice were treated with a single dose of saline, ketamine, or ketamine in combination with retigabine (1 mg/kg) and antidepressant-like behaviors were assessed using the FST, 5—and 7-days post-injection (FIG. 8A). […] Next, as a potential therapeutic strategy for major depressive disorder (MDD), the synergistic effects of ketamine and retigabine was further investigated by testing whether or not retigabine can increase the antidepressant-like effects produced by ketamine in mice. […] Next, it was tested whether retigabine can produce similar synergistic effects in combination with traditional antidepressants. […] Lastly, using a new cohort of Nex-Cre-Ai9 mice, it was tested whether the adjunctive treatment of ketamine with retigabine, or escitalopram alone, could modify the expression of Kcnq2 mRNA in FACS sorted cells from the vHipp (FIG. 8F).

[4] = test system: CD-1 mice injected with shRNA-Kcnq2 or shRNA-control AAV; assay: Forced swim test after AAV shRNA knockdown of Kcnq2 in the vHipp; type: in vivo, mouse
CD-1 mice = assay: Social Box (SB) behavioral response, ketamine response score P-KET (PLS-DA); type: in vivo, mouse
[5] = test system: treatment-resistant patients; settings: single sub-anesthetic dose; cited from earlier work

In the case of CNC1(c2ccccc2Cl)CCCCC1=O (racemic) [ketamine, (R,S)-ketamine], the “Kcnq2 mRNA fold change (FC) after ketamine treatment” value ([1]; Ai9+ cells, ketamine 10 mg/kg BW vs saline, 36 hours, p<0.001) is reported as 2.2, the “mRNA levels of 8 top DEGs” value ([1]; Ai9+ cells) is reported as “significantly dysregulated” and the “mRNA levels of 8 top DEGs” value ([1]; Ai9- cells) is reported as “No significant differences”. For the same molecule, the “mRNA expression of Kcnq3 after ketamine treatment” value ([1]; any of the experiments: scRNA-seq, FACS-sorted cells, primary neurons (Table 2B, FIGS. 17A-C)) was “no significant differences”, the “Kcnq2 mRNA” value ([1]; glutamatergic neurons (tdTomato+) of the vHipp, two days after treatment, ketamine 10, escitalopram 10, retigabine 1 mg/kg/BW) was “significant increase of Kcnq2 mRNA” and the “total number of Ai9+ sorted cells, ketamine vs saline” value ([1]; ketamine 10 mg/kg BW, 36 hours) was “No significant differences”. For the same molecule, the “bulk mRNA expression of the 8 genes, ketamine vs saline” value [2] was “did not reach statistical significance”, the IM current density [3] was “significant increase in IM current density” and the “immobility time during the FST” value (mice (C57BL/6N); (R,S)-ketamine 10 mg/kg/BW, dose series (FIG. 8E, FIG. 26A)) was “significant reduction of immobility time”. For the same molecule, the “antidepressant-like effects in the FST” value (mice (C57BL/6N); (R,S)-ketamine 1 and 5 mg/kg/BW) was “failed to produce antidepressant-like effects”, the “immobility time during the FST” value (mice (C57BL/6N); ketamine 10 mg/kg BW alone vs saline (FIGS. 23A-B)) was “significant decrease in immobility time; also recorded: significant effect” and the “FST effect at day 7 post-injection” value (mice (C57BL/6N); single dose of ketamine alone) was “disappeared by day 7”. The “duration of the FST effect post-injection” value (mice (C57BL/6N); single dose of ketamine alone) was “up to five days”, the “immobility time during the FST, sustained effect” value (mice (C57BL/6N); single dose of ketamine alone, several days post-injection (day 5)) was “significant decrease in immobility time” and the “antidepressant-like effects of ketamine in the FST” value ([4]; mice expressing the shRNA-Kcnq2 virus, ketamine 10 mg/kg BW) was “no longer detected”. The “immobility time during the FST” value ([4]; shRNA-scramble control mice, ketamine 10 mg/kg BW vs saline) was “significant decrease in immobility time”, the “response to ketamine (P-KET) in the SB vs saline” value (CD-1 mice; ketamine 10 mg/kg) was “significant difference” and the “SB behavioral readouts (PLSDA classifier)” value (CD-1 mice; ketamine 10 mg/kg/BW i.p.) was “spent more time exploring in an open area of the SB arena; also recorded: more social and anxiolytic behaviors”. The “duration of antidepressant response” value [5] was “up to 7 days” and the “onset of antidepressant response” value [5] was “within hours”.
